From patent US11739083B2, “Disposable sensor chip with reagent including 2-substituted benzothiazolyl-3-substituted phenyl-5-substituted sulfonated phenyl-2H-tetrazolium salt” (TERUMO KABUSHIKI KAISHA, priority 2016, dated 2023)

Assays:
[1] = Evaluation of stability (absorbance increase of measurement solution over 6 hours); conditions: FIG. 3; absorbance increase per hour over 6 hours
Procedure: To 0.02 mmol of each compound, 75 μL of RO water and 100 μL of a 0.5 M MOPS solution (pH 7.2) were added, and the compound was dissolved therein. The solution was used as a sample.
To 175 μL of this sample, 10 μL of the GDH solution, 5 μL of the m-PMS solution, and 10 μL of the nickel solution, all of which had been produced in the same manner as in the above section (Evaluation of sensitivity), were added, and thereby a measurement solution was produced.
As a control, 85 μL of RO water and 100 μL of a 0.5 M MOPS solution (pH 7.2) were added to 11.6 mg of 2-benzothiazolyl-3-(4-carboxy-2-methoxyphenyl)-5-[4-(2-sulfoethylcarbamoyl)phenyl]-2H-tetrazolium (WST-4), and the compound was dissolved. Thus, a control sample was produced. […] Thus, a control reaction solution was produced.
At the time of production of the measurement solution (0 hour), and after 1 hour, 2 hours, and 6 hours from the production, the spectra of the measurement solutions produced as described above were measured using a spectrophotometer (measurement cell length: 50 μm) (n=1). For each spectrum, the absorbance at the maximum absorption wavelength (λmax) of each compound as determined above was measured. The absorbances measured at the time of production of the measurement solution (0 hour) and after 6 hours from the production were designated as Abs0 h and Abs6 h, respectively. […]

[2] = Evaluation Example 1: evaluation as blood glucose meter sensor
Procedure: Separately, 100 μL of RO water was added to 7 mg of a glucose dehydrogenase (GDH-FAD) (manufactured by TOYOBO CO., LTD., product No.: GLD-351) to dissolve the enzyme, and thus a GDH solution was produced. Furthermore, 200 μL of RO water was added to 3.5 mg of 1-methoxy-5-methylphenazium methyl sulfate (m-PMS) (manufactured by DOJINDO LABORATORIES) to dissolve the compound, and thus an s-PMS solution was produced. 1 mL of RO water was added to 129 mg of nickel chloride to dissolve the salt, and thus a nickel solution was produced.
The coating liquid obtained as described above was applied on a PET film, and a reagent ribbon 1 was produced. The area of coating was 1.5 mm×75 mm (total coating amount 5.6 μL). This reagent ribbon 1 was cut in the longitudinal direction, and a reagent piece 2 was obtained (1.5 mm×3 mm).
Along the two edges of a PET film 5 that would become one surface of a blood glucose meter sensor, a double-sided tape having a thickness of […] was provided as a spacer. […]
A whole blood sample (Ht40, 100 mg/dL) (hematocrit value 40%, glucose concentration 100 mg/dL) was spotted at the flow channel inlet port of the blood glucose meter sensor thus produced. The whole blood sample (Ht40, 100 mg/dL) was produced as follows: whole blood was collected into a heparin-containing blood sampling tube, the hematocrit value of this whole blood was measured, and the hematocrit value of the whole blood sample was regulated to be Ht40 by adding the blood plasma obtained by separation in advance, or by removing the blood plasma of the whole blood sample, as appropriate. […] The specimen was spotted on the reagent part, and then after 9 seconds, the spectrum was measured using a fiber spectrophotometer. The absorbance at the maximum absorption wavelength was measured using the spectrum measured with each of the blood glucose meter sensors that used various compounds. The absorbance obtainable in the case of measuring the whole blood sample (Ht40, 100 mg/dL) was designated as AbsBG100. […]

SMILES: COc1ccc2nc(-n3nc(-c4ccc(S(=O)(=O)O)cc4S(=O)(=O)[O-])n[n+]3-c3ccc(OC)c(S(=O)(=O)O)c3)sc2c1 [Example 1]
- [(Abs6 h−Abs0 h)/6] value [1]: about 0.008
- time to completion of color development ([2]; whole blood and aqueous glucose solution, absorbance at 630 nm, FIG. 7): 5 s
- absorbance ([2]; whole blood and aqueous glucose solutions, 9 seconds from initiation of reaction, FIG. 6): higher than 0.2
- color development (ΔAbs=AbsBG100−AbsBG0) relative to WST-4 (650 nm) ([2]; whole blood sample Ht40, 100 mg/dL, 9 seconds, FIG. 5): about 3 times
